According to patent publication US20260256789A1, “METHODS FOR TREATMENT OF CANCER” (Frontier Medicines Corporation, priority 2022, published 2026):

Target: T1, KRAS G12C (GMPPNP-loaded) and cRAF Ras-binding domain (Homo sapiens, UniProt P01116, C118S/C51S/C80L/G12C)
T1 construct: truncated version comprising amino acids 1-169
Experiment: Inhibition of KRAS G12C and cRAF binding (AlphaScreen)
Settings: KRAS G12C preloaded with GTP analogue GMPPNP, 2 hours preincubation
How it was run: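 AlphaScreen used biotin-AviTag KRAS G12C (Cys-light, aa 1-169; 0.5 nM), GMPPNP-loaded, preincubated 2 h with compound (top 50 μM, 1:3, 10 points, 2% DMSO) in pH 7.4 Hepes buffer with 10 μM GMPPNP. GST-cRAF RBD (aa 50-131; 0.75 nM) plus beads were then added for 60-90 min at room temperature, and IC50 came from a 4-parameter fit.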

T1 sequence (P01116 1-169 isoform P01116-2 G12C/C51S/C80L/C118S): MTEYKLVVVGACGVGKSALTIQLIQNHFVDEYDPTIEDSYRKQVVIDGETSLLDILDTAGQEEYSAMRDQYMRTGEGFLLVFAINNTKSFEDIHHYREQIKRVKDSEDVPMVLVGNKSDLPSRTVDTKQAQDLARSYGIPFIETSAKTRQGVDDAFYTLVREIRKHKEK

IC50 [nM]	SMILES
≥ 500	C=CC(=O)N1CC(CN(C)c2nc(OC[C@@]34CCCN3C[C@H](F)C4)nc3c(F)c(-c4nc(N)cc5cccc(F)c45)ncc23)C1 [Example 128, 1-(3-(((7-(3-amino-8-fluoroisoquinolin-1-yl)-8-fluoro-2-(((2R,7aS)-2-fluorotetrahydro-1H-pyrrolizin-7a(5H)-yl)methoxy)pyrido[4,3-d]pyrimidin-4-yl)(methyl)amino)methyl)azetidin-1-yl)prop-2-en-1-one]
≥ 500	Cc1cc(N)nc(N2CCc3c(nc(OC[C@@]45CCCN4C[C@H](F)C5)nc3N(C)[C@@H]3CCN(C(=O)/C=C/c4nc(C(C)C)no4)C3)C2)c1C(F)(F)F [Example 147, (E)-1-((R)-3-((7-(6-amino-4-methyl-3-(trifluoromethyl)pyridin-2-yl)-2-(((2R,7aS)-2-fluorotetrahydro-1H-pyrrolizin-7a(5H)-yl)methoxy)-5,6,7,8-tetrahydropyrido[3,4-d]pyrimidin-4-yl)(methyl)amino)pyrrolidin-1-yl)-3-(3-isopropyl-1,2,4-oxadiazol-5-yl)prop-2-en-1-one]
≥ 500	C=CC(=O)N1CC[C@@H](N(C)c2nc(OC[C@@]34CCCN3C[C@H](F)C4)nc3c(F)c(-c4ccccc4OC(F)F)ncc23)C1 [Example 182]
10 to 100	Cc1cc(N)nc(-c2ncc3c(N(C)[C@@H]4CCN(C(=O)/C=C/c5nc(C(C)C)no5)C4)nc(OC[C@@]45CCCN4C[C@H](F)C5)nc3c2F)c1C1CC1 [Example 170]
100 to 500	Cc1cc(/C=C/C(=O)N2CC[C@@H](N(C)c3nc(OC[C@@]45CCCN4C[C@H](F)C5)nc4c(F)c(-c5cccc(Cl)c5C5CC5)ncc34)C2)nc(C)n1 [Example 247]
10 to 100	CO[C@H]1CCN(C/C=C/C(=O)N2CC[C@@H](N(C)c3nc(OC[C@@]45CCCN4C[C@H](F)C5)nc4c(F)c(-c5cccc(Cl)c5C5CC5)ncc34)C2)C1 [Example 210]
